Laboratory results: US20250066386A1, “INHIBITORS OF KRAS” (BIOMEA FUSION, INC., priority 2022, published 2025)
pIC50: −log10 of the molar value. Like-named read-outs stand apart in the source and are kept apart here.

Experiments:
[1] = test system: human KRAS G12D mutated cell line SUIT-2; test: KRas G12D in vitro inhibitory activity: cell proliferation, CellTiter-Glo; type: cell-based; conditions: 7 day inhibition of cell proliferation, medium and compound renewed on day 3, CellTiter-Glo luminescence
Excerpt: The present example evaluates the ability of compounds provided herein to inhibit proliferation of KRAS mutant cells.
The proliferation inhibitory effect was investigated in the human KRAS G12D mutated cell line SUIT-2 (Iwamura et al., 1987, Jpn. J. Cancer Res. 78.54-62; JCRB catalog no. JCRB1094). Cells were maintained in RPMI-1640 medium (ThermoFisher catalog no. 61870036) supplemented with 10% of Heat Inactivated FBS (ThermoFisher catalog no. A31605) and 1% Pen-Strep (ThermoFisher catalog no. 10378016) and cultured at 37° C. in a humidified incubator with 5% CO2. Cells were grown by adhering to culture flasks, and maintained at 70%-80% confluency.
ATP is present in all metabolically active cells and is considered as a marker for viable cells. The number of metabolically active live cells in culture was determined using the CellTiter-Glo kit (Promega catalog no. G7572), an ATP monitoring system based on the production of luminescence by the reaction of ATP with added UltraGlo® recombinant luciferase (Kawano et al., 2016, PLOS One, 8; 11(7):e0158888), according to the supplier's experimental recommendations. The cell proliferation assay was based on a 96 well plate format.
Test compounds were dissolved at 10 mM in DMSO (Sigma catalog no. D8418; purity >99.9%) and stored at −20° C. Eight concentrations of test compound were assessed in duplicate in an individual test occasion in parallel in the selected cell lines. MRTX-849 and AMG-510 were used as reference compounds and tested in duplicate at eight concentrations. 100% of proliferation is represented by the untreated cells (0.1% DMSO).
On the day of the experiment (TO), cells were detached with TrypLE (ThermoFisher catalog no. 12604054) quantified using the cell viability analyzer NucleoCounter (Chemometec NC-200) and resuspended in fresh medium at a cell density of about 1000 cells per 200 μL medium. 200 μL of cell suspension were added to each well of a 96 well plate.
Two 2 hours after seeding cells, compounds were added at desired concentrations using a D300e compound dispenser (Life Sciences Tecan D300) with shaking after each compound addition. Assay plates were incubated at 37° C. in a humidified incubator with 5% CO2.
On day 3 (T3), 150 μL of growth media was removed from each well of the assay plates and replaced with 150 uL fresh growth media, and fresh compounds added using a D300e compound dispenser (Life Sciences Tecan D300) at desired concentrations with shaking between each compound addition. […] Luminescence was read using a GloMax GM300 plate reader (Promega) using the luminescence for 96 well plate standard protocol. […]
Results were analyzed by GraphPad (Prism) and IC50 values were calculated by non-linear regression using four parameter-logistic equation. […]

[2] = test system: human KRAS G12C mutated cell line MIA PaCa-2; test: KRas G12C in vitro inhibitory activity: cell proliferation, CellTiter-Glo; type: cell-based
Method in brief: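 MIA PaCa-2 cells (~5000/well, RPMI-1640 + 10% FBS) dosed 2 h after seeding at eight concentrations in duplicate, 37° C., 5% CO2. Viability by CellTiter-Glo luminescence at day 3, or day 7 with medium and compound refreshed on day 3. % inhibition vs 0.2% DMSO; IC50 by four-parameter logistic fit.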

[3] = Homo sapiens, MIA PaCa-2, 72 h, 3 day inhibition of cell proliferation, CellTiter-Glo luminescence, read-out: MIA PaCa-2 Day 3 IC50
[4] = Homo sapiens, MIA PaCa-2, 7 day inhibition of cell proliferation, medium and compound renewed on day 3, CellTiter-Glo luminescence, read-out: MIA PaCa-2 Day 7 IC50

| pIC50 ([2]; 7 day inhibition of cell proliferation, medium and compound renewed on day 3, CellTiter-Glo luminescence, read-out: MIA PaCa-2 Day 7 IC50) | pIC50 [2, 3] | pIC50 [2, 4] | SMILES | pIC50 [1] |
| --- | --- | --- | --- | --- |
| 7.00 to 8.00 | – | – | CCn1c(-c2cccnc2[C@H](C)OC)c2c3cc(ccc31)-c1cccc(c1)C[C@H](NC(=O)[C@H](C(C)C)N(C)C(=O)[C@H]1CCN(C(=O)C#CCN3CCOCC3)C1)C(=O)N1CCC[C@H](C1)C(=O)OCC(C)(C)C2 (atropisomer, axis not shown) [Compound 1, (3S)—N-((2S)-1-(((6^3R,4S)-1^1-ethyl-1^2-(2-((S)-1-methoxyethyl)pyridin-3-yl)-10,10-dimethyl-5,7-dioxo-1^1H-8-oxa-1(5,3)-indola-6(1,3)-piperidina-2(1,3)-benzenacycloundecaphane-4-yl)amino)-3-methyl-1-oxobutan-2-yl)-N-methyl-1-(4-morpholinobut-2-ynoyl)pyrrolidine-3-carboxamide] | < 7.00 |
| – | 8.00 to 9.00 | 7.00 to 8.00 | CCn1c(-c2cccnc2[C@H](C)OC)c2c3cc(ccc31)-c1cccc(c1)C[C@H](NC(=O)[C@H](C(C)C)N(C)C(=O)[C@H]1CCN(C(C)C#CC(=O)N(C)C)C1)C(=O)N1CCC[C@H](N1)C(=O)OCC(C)(C)C2 (stereo partly shown) [Compound 5] | < 7.00 |
| – | 8.00 to 9.00 | 8.00 to 9.00 | CCn1c(-c2cccnc2[C@H](C)OC)c2c3cc(ccc31)-c1cccc(c1)C[C@H](NC(=O)[C@H](C(C)C)N(C)C(=O)[C@H]1CCN(CC#CC(=O)N(C)C)C1)C(=O)N1CCC[C@H](N1)C(=O)OCC(C)(C)C2 (atropisomer, axis not shown) [Compound 3, (3S)-1-(4-(dimethylamino)-4-oxobut-2-yn-1-yl)-N-((2S)-1-(((6^3S,4S)-1^1-ethyl-1^2-(2-((S)-1-methoxyethyl)pyridin-3-yl)-10,10-dimethyl-5,7-dioxo-6^1,6^2,6^3,6^4,6^5,6^6-hexahydro-1^1H-8-oxa-1(5,3)-indola-6(1,3)-pyridazina-2(1,3)-benzenacycloundecaphane-4-yl)amino)-3-methyl-1-oxobutan-2-yl)-N-methylpyrrolidine-3-carboxamide] | < 7.00 |
| – | – | < 7.00 | CCn1c(-c2cccnc2[C@H](C)OC)c2c3cc(ccc31)-c1cccc(c1)C[C@H](NC(=O)[C@H](C(C)C)N(C)C(=O)[C@H]1CCN(C(=O)C#CC(=O)N(C)C)C1)C(=O)N1CCC[C@H](N1)C(=O)OCC(C)(C)C2 (atropisomer, axis not shown) [Compound 4] | < 7.00 |
